The source of these data is PubChem BioAssay AID1996.

Each structure is given as a SMILES string. Converted amounts (≈) assume the structure as drawn. Non-standard residues stand in square brackets, D forms with d. Residues, ends and D or L forms follow the SMILES beside them. ξ: configuration not given here. *: point of attachment. ξN = NC(=O)CC(N)C(=O)O; Boc = CC(C)(C)OC(=O)*

For this series the following is noted: buffer; pH 7.4; 200.0 µM.
`O=C(COC(=O)COc1ccccc1)NCc1ccc2c(c1)OCO2` yielded a kinetic solubility greater than 51.5 µg/mL.

Compound `CCCNC(=S)N1CCC(NC(=O)c2ccc(C)cc2)CC1` displayed a solubility (kinetic) of 7.5 µg/mL (≈ 23.5 µM).

`N#Cc1cc(N)ccc1-n1cccc1` had a solubility (kinetic) of 27.2 µg/mL (≈ 148 µM).

Compound `Cc1cccc(C(=S)N2CCOCC2)n1` gave a solubility (kinetic) greater than 33.3 µg/mL.

For `CCOc1ncccc1C(=O)Nc1ccc(F)c(Cl)c1`, the solubility (kinetic) was determined as 1 µg/mL (≈ 3.39 µM).

`Cc1cc(NC(=O)CSc2nncn2-c2ccccc2)no1` yielded a solubility (kinetic) greater than 47.3 µg/mL.

Consider `CN(Cc1cccc(Cl)c1)C(=O)C1CSC2(C)CCC(=O)N12` (stereo not given), for which the solubility (kinetic) is greater than 50.8 µg/mL.

Turning to `CC(C)N(Cc1ccccc1)C(=O)COC(=O)c1cc(S(=O)(=O)N(C)C)ccc1N1CCCC1`, the kinetic solubility is 7.5 µg/mL (≈ 15.4 µM).

The compound `CCn1cnc2scc(-c3ccc(OC)cc3)c2c1=O` came in with a kinetic solubility greater than 43 µg/mL.

The compound `CC(C)(C)NC(=O)COc1ccc(CNc2ccc3[nH]c(=O)[nH]c3c2)cc1` returned a solubility (kinetic) of 0.8 µg/mL (≈ 2.17 µM).

`Cc1ccc(C)c(C(=O)CSc2nc(N)cc(=O)[nH]2)c1` showed a solubility (kinetic) of 19.2 µg/mL (≈ 66.4 µM).

`Cl.NC(c1ccccc1)c1ccncc1` (stereo not given) came in with a solubility (kinetic) greater than 38.6 µg/mL.

`N#CC1(NC(=O)COC(=O)CN2C(=O)c3ccccc3C2=O)CCCCC1` yielded a solubility (kinetic) greater than 55.4 µg/mL.

`C=CCNc1nc(N)c([N+](=O)[O-])c(NCCO)n1` yielded a kinetic solubility greater than 38.1 µg/mL.

`COc1cc(CC(=O)O)c([N+](=O)[O-])cc1OC` showed a kinetic solubility greater than 36.2 µg/mL.

As for `Cc1ccc(S(=O)(=O)N2CCOCC2)cc1NC(=O)COC(=O)c1ccc(Cl)nc1`, the kinetic solubility was greater than 68.1 µg/mL.

`S=c1[nH]c2ccccc2n2c(=S)[nH]nc12` returned a solubility (kinetic) greater than 35.1 µg/mL.

For `CCc1ccc(S(=O)(=O)Nc2ccc(C)c(NS(C)(=O)=O)c2)cc1`, the solubility (kinetic) is 48.6 µg/mL (≈ 132 µM).

As for `Cc1nc(C(F)(F)F)ccc1C(=O)Nc1ccccc1N1CCOCC1`, the solubility (kinetic) was 50.8 µg/mL (≈ 139 µM).

Regarding `COc1ccc(S(=O)(=O)n2cnc3ccccc32)cc1OC`, the kinetic solubility is greater than 47.8 µg/mL.

Turning to `Cc1cnc(NC(=O)c2c(-c3ccccc3)noc2C)s1`, the solubility (kinetic) came out at 39.8 µg/mL (≈ 133 µM).

In turn, `COc1ccc(NC(=O)c2cc(C)no2)cc1` returned a solubility (kinetic) greater than 34.8 µg/mL.

`CN(C(=O)c1cccc(S(=O)(=O)NCc2ccccc2)c1)C1CCCCC1` came in with a kinetic solubility of 50.7 µg/mL (≈ 131 µM).

Regarding `CC[C@H](C)[C@H](NC(N)=O)C(=O)Nc1ccc2c(c1)OCO2`, the kinetic solubility turned out to be 38.6 µg/mL (≈ 132 µM).

`O=C(O)C(Cc1c[nH]c2ccccc12)N1C(=O)c2ccccc2C1=O` (stereo not given) gave a solubility (kinetic) of 41.4 µg/mL (≈ 124 µM).

Regarding `Cc1cc(Cl)ccc1NC(=O)C1CCN(S(C)(=O)=O)CC1`, the solubility (kinetic) amounted to 10.8 µg/mL (≈ 32.6 µM).

On to `COc1cccc(CN2C(=O)C(C)Oc3ccccc32)c1` (stereo not given), for which the solubility (kinetic) came out at 26.5 µg/mL (≈ 93.5 µM).

Turning to `CCOc1ccc(S(=O)(=O)NCc2ccc3c(c2)OCO3)cc1C`, the solubility (kinetic) came out at 24.3 µg/mL (≈ 69.5 µM).

`CCOC(=O)c1c(C)[nH]c(C)c1C(=O)COC(=O)c1ccc(Cl)nc1` came in with a kinetic solubility greater than 54.7 µg/mL.

Consider `CN(C(=O)CSc1nc(N)cc(N)n1)C1CCS(=O)(=O)C1` (stereo not given), for which the kinetic solubility was 41 µg/mL (≈ 124 µM).

The compound `O=C(COC(=O)c1cnccn1)Nc1cccc2ccccc12` had a solubility (kinetic) greater than 46.1 µg/mL.

Take `CCN(Cc1ccccc1)C(=O)c1c(-c2ccccc2Cl)noc1C`: the solubility (kinetic) was 38.7 µg/mL (≈ 109 µM).

Take `COc1cc(C)cc(CN2CCC(Cc3ccccc3)CC2)c1O`: the kinetic solubility is 44.5 µg/mL (≈ 137 µM).

Regarding `CCC(=O)NC(c1ccc(C)cc1)c1ccc2cccnc2c1O` (stereo not given), the kinetic solubility stood at 1.6 µg/mL (≈ 4.99 µM).

For the compound `Cc1ccc(NC(=O)Cn2c(=O)oc3ccccc32)cc1C`, the kinetic solubility came to 4.2 µg/mL (≈ 14.2 µM).

`CC(=O)Nc1ccc(C(=O)OCC(=O)N2CCCC2=O)cc1`: the solubility (kinetic) is greater than 45.6 µg/mL.

In the case of `Nc1cc(Nc2ccccc2)ccn1.O=P(O)(O)O`, the solubility (kinetic) is greater than 42.5 µg/mL.

The compound `COc1ccc(/C=C/C(=O)NC(=S)N2CCN(C)CC2)cc1` came in with a solubility (kinetic) greater than 47.9 µg/mL.

In turn, `CC(C)c1ccc(CNc2ncccn2)cc1.O=C(O)C(=O)O` returned a solubility (kinetic) of 31.3 µg/mL.

Regarding `COc1ccc(NC(=O)c2ccc3nc(C)sc3c2)cc1`, the solubility (kinetic) came out at 15.4 µg/mL (≈ 51.6 µM).

`CCc1ccc(NC(=O)NC2CCCCCCC2)cc1` showed a kinetic solubility of less than 0.3 µg/mL.

Compound `CC(=O)Cn1c(=O)oc2ccccc21` returned a kinetic solubility of 27.1 µg/mL (≈ 142 µM).

Turning to `O=S(=O)(Nc1ccc(-c2cnco2)cc1)c1ccccc1`, the kinetic solubility turned out to be 43.6 µg/mL (≈ 145 µM).

`O=C(CCn1ccnc1)Nc1nc2ccccc2[nH]1` yielded a kinetic solubility greater than 38.3 µg/mL.

`Clc1ccccc1Cc1noc(CN2CCN3CCCC3C2)n1` (stereo not given) registered a solubility (kinetic) greater than 49.9 µg/mL.

For `Cc1ccc(C(=O)CN2C(=O)NC3(CCCCC3C)C2=O)s1` (stereo not given), the solubility (kinetic) is 33.2 µg/mL (≈ 104 µM).

Take `CC(C)(CNCc1ccccc1)NS(=O)(=O)c1ccc(Cl)cc1`: the solubility (kinetic) was greater than 52.9 µg/mL.

`CC(C)Cc1cc(C(=O)Nc2cccc(O)c2)no1` registered a kinetic solubility of 13.6 µg/mL (≈ 52.2 µM).

In turn, `Cc1ccc2cc(C#N)c(N3CCN(C(=O)c4cccs4)CC3)nc2c1` came in with a kinetic solubility of less than 0.2 µg/mL.

In the case of `OC(CC#CCN1CCCC1)(c1ccccc1)c1ccccc1`, the kinetic solubility is 36.7 µg/mL (≈ 120 µM).

On to `CCOC(=O)c1[nH]c(C)c(C(=O)/C=C/c2ccc(C(=O)O)cc2)c1C`, for which the kinetic solubility is greater than 51.2 µg/mL.

`c1ccc(-c2ccc(-c3ccccn3)s2)nc1` displayed a solubility (kinetic) of 4.2 µg/mL (≈ 17.6 µM).

In turn, `CCOc1ccc(CN(C)C(=O)c2ccc(=O)[nH]c2)cc1` returned a solubility (kinetic) of 29.3 µg/mL (≈ 102 µM).

For the compound `Cc1ccc(S(=O)(=O)NC(=O)Nc2ccc(C)cc2C)cc1`, the solubility (kinetic) came to 35.1 µg/mL (≈ 110 µM).

`CSc1cccc(NC(=O)C2(S(=O)(=O)c3ccc(C)cc3)CC2)c1` came in with a solubility (kinetic) of 19.9 µg/mL (≈ 55.1 µM).

In turn, `Cc1ccc(S(=O)(=O)N2CCn3cccc3C2C)cc1` (stereo not given) returned a kinetic solubility greater than 43.6 µg/mL.

The compound `CC(=O)Nc1ccc(N=Cc2c(O)c3ccccc3oc2=O)cc1` had a solubility (kinetic) of 3.8 µg/mL (≈ 11.8 µM).

`CCN1CCN(c2cc(C)nc(-c3ccccc3O)n2)CC1`: the solubility (kinetic) is greater than 44.8 µg/mL.

With `COc1ccc(NC(=O)c2ccc(C)cc2)c[n+]1[O-]`, the kinetic solubility is greater than 38.7 µg/mL.

`CCCOc1ccc(/C=C2/C(=O)ON=C2C)cc1Cl` returned a solubility (kinetic) of 27.9 µg/mL (≈ 99.7 µM).

Take `CCOc1ccc(OCc2ccc(C(=O)NC(C)C)o2)cc1`: the solubility (kinetic) was 13.3 µg/mL (≈ 43.8 µM).

Consider `COCc1c(C(=O)N2CCc3ccccc32)oc2ccccc12`, for which the solubility (kinetic) came out at 7.6 µg/mL (≈ 24.7 µM).

The compound `CN1C(=O)CSC1=Nc1ccc(F)cc1` showed a kinetic solubility of 28.7 µg/mL (≈ 128 µM).

`Cc1cc2c(Nc3cccc(O)c3)ncnc2s1.Cl` came in with a solubility (kinetic) of 41.7 µg/mL.

The compound `COc1ccc(C=NNC(=O)c2cc(C)oc2C)cc1O` gave a solubility (kinetic) greater than 43.2 µg/mL.

With `O=C(COc1ccc(Cl)cc1)Nc1ncc([N+](=O)[O-])s1`, the solubility (kinetic) was 3.2 µg/mL (≈ 10.2 µM).

The compound `O=C(c1ccc2ccccc2c1)N1CCc2ccccc21` registered a solubility (kinetic) of less than 0.6 µg/mL.

Compound `COc1ccc(C(=O)c2cnc[nH]2)cc1` gave a kinetic solubility greater than 30.3 µg/mL.

On to `NC(=O)c1ccccc1`, for which the solubility (kinetic) is greater than 18.2 µg/mL.

As for `FC(F)(F)c1ccc(NCc2ccccn2)nc1`, the solubility (kinetic) is greater than 38 µg/mL.

Compound `COc1ccccc1OCC(O)CN1CCN(C(=O)c2ccccc2)CC1.Cl` (stereo not given) returned a solubility (kinetic) greater than 61 µg/mL.

The compound `Cc1cccc(NC(=O)N2CCC(NC(=O)c3ccco3)CC2)c1` showed a solubility (kinetic) greater than 49.1 µg/mL.

`CCC(=O)Nc1ccc2c(c1)N(C(C)=O)c1ccccc1CC2` gave a solubility (kinetic) greater than 46.3 µg/mL.

The compound `S=c1[nH]ccn1Cc1ccccc1` registered a kinetic solubility greater than 28.5 µg/mL.

For the compound `CCOC(=O)CNC(=O)C(CC(N)=O)NC(=O)OC(C)(C)C` (stereo not given) (Boc-[ξN]-Gly-OEt), the solubility (kinetic) was greater than 47.6 µg/mL.

In general, solubility (kinetic) refers to solubility judged after dilution from a stock solution rather than from solid.
